Assay results as given in patent US8546381B2, “Bridged heterocyclic compounds and methods of use” (Medivation Technologies, Inc., priority 2008, dated 2013).

Tests used:
[1] = target: T1, human recombinant serotonin (5-Hydroxytryptamine) 5-HT2A receptor (Homo sapiens, UniProt P28223); assay: Serotonin 5-HT2A radioligand binding ([3H]Ketanserin); conditions: read-out: Serotonin 5-HT2A, inhibition of ligand binding (1 μM)
T1 construct: expressed in transfected cells; host or cells: CHO-K1 cells
Summary of the method: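 CHO-K1 membranes with human 5-HT2A in 50 mM Tris-HCl pH 7.4, incubated with 0.5 nM [3H]Ketanserin for 60 min at 25 °C; non-specific binding defined with 1 μM mianserin. Bound ligand measured by filtration and counting.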

[2] = target: T2, human recombinant adrenergic α2B receptor (Homo sapiens, UniProt P18089); assay: Adrenergic α2B radioligand binding ([3H]Rauwolscine); conditions: 1 μM; read-out: Adrenergic α2B, inhibition of ligand binding (1 μM)
T2 construct: expressed in transfected cells; host or cells: CHO-K1 cells
T2 sequence (P18089 1-450): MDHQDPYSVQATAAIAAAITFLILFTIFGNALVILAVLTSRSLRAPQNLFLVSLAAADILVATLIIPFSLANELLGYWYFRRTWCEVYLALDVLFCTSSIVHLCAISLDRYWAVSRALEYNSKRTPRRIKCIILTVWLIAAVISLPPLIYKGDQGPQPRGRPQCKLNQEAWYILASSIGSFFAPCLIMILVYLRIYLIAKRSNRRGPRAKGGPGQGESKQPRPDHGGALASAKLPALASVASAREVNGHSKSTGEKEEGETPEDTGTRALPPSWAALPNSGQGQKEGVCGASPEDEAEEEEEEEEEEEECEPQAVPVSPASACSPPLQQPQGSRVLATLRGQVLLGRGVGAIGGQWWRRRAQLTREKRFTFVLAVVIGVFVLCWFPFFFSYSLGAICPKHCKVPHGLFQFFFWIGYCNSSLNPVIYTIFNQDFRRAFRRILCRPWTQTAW
Method: To evaluate in radioligand binding assays the activity of compounds of the invention, human recombinant adrenergic α2B receptor expressed in Chinese hamster ovary (CHO-K1) cells (Uhlen S et al. Eur J. Pharmacol. 343(1):93, 1998) in a modified Tris-HCl buffer (50 mM Tris-HCl, pH 7.4, 12.5 mM MgCl2, 1 mM EDTA, 0.2% BSA) was used. Compounds of the invention were incubated with 2.5 nM [^3H]Rauwolscine for 60 minutes at 25° C. Non-specific binding was estimated in the presence of 10 μM Prozosin. Receptor proteins were filtered and washed, the filters were then counted to determine [^3H]Rauwolscine specifically bound. Compounds were screened at 1 μM or lower, using 1% DMSO as vehicle. Biochemical assay results are presented as the percent inhibition of specific binding in Table 3.

[3] = target: T3, human recombinant serotonin (5-Hydroxytryptamine) 5-HT2C receptor (Homo sapiens, UniProt P28335); assay: Serotonin 5-HT2C radioligand binding ([3H]Mesulergine); conditions: read-out: Serotonin 5-HT2C, inhibition of ligand binding (1 μM)
T3 construct: expressed in transfected cells; host or cells: CHO-K1 cells
T3 sequence (P28335 33-458): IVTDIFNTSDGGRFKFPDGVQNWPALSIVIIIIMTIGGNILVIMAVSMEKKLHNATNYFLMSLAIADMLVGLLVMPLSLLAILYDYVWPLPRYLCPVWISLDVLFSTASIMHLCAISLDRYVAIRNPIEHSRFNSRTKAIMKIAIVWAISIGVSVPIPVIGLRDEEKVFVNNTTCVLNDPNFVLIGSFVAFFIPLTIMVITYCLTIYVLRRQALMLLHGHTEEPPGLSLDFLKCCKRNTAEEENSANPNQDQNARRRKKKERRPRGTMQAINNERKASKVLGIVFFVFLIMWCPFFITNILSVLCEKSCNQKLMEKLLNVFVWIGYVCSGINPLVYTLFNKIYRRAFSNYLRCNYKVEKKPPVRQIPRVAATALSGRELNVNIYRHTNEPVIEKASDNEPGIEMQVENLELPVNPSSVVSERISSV
Summary of the method: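 Membranes from CHO-K1 cells expressing the human receptor were incubated 60 min at 25 °C with 1 nM [3H]mesulergine in 50 mM Tris-HCl pH 7.4 with ascorbic acid and 10 μM pargyline. Compounds were tested at 1 μM or lower in 1% DMSO, with 1 μM mianserin defining non-specific binding. After filtration, values are % inhibition of specific binding.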

[4] = target: T4, human recombinant serotonin (5-Hydroxytryptamine) 5-HT6 receptor (Homo sapiens, UniProt P50406); assay: Serotonin 5-HT6 radioligand binding ([3H]LSD); conditions: read-out: Serotonin 5-HT6, inhibition of ligand binding (1 μM)
T4 construct: expressed in transfected cells; host or cells: human HeLa cells
Summary of the method: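 Membranes of HeLa cells expressing human 5-HT6 were incubated with 1.5 nM [3H]LSD in Tris-HCl buffer pH 7.4 for 120 min at 37° C, with non-specific binding defined by 5 μM 5-HT.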

T4 sequence (P50406 whole entry): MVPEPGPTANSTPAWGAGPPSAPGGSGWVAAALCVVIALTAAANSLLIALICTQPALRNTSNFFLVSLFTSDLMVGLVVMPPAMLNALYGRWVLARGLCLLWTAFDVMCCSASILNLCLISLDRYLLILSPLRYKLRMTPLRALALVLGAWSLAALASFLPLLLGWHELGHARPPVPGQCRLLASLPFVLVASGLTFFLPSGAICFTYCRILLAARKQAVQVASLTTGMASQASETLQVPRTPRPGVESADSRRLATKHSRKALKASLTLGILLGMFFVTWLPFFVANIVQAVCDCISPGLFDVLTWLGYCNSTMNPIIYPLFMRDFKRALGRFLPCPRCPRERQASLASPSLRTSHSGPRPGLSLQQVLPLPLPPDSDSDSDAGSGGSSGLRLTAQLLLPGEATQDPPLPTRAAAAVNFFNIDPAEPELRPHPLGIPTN
T1 sequence (P28223 whole entry): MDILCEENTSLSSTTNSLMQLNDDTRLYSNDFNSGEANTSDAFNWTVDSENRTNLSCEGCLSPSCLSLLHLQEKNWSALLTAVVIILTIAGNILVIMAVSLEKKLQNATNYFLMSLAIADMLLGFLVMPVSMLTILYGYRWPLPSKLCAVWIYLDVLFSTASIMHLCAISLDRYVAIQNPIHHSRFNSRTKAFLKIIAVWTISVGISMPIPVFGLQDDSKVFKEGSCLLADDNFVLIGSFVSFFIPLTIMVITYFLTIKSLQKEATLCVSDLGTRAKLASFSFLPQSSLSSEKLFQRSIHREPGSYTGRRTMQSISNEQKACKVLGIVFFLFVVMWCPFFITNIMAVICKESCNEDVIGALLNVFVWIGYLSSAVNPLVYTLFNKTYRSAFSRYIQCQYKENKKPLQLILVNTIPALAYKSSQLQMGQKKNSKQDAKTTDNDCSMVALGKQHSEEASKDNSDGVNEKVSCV

Question: Which inhibition at 1 µM [1] does the source give for `CN1C2CCC1c1c(n(CCC#N)c3ccc(Cl)cc13)C2` (stereo not drawn) [Compound 107] here?
Answer: 5%

Question: And the inhibition at 1 µM [2]?
Answer: 57%

Question: And the inhibition at 1 µM [3]?
Answer: 25%

Question: And the inhibition at 1 µM [4]?
Answer: -3%

Question: Which results are given for `CN1C2CCC1c1c(n(CC(=O)c3ccccc3)c3ccc(Cl)cc13)C2` (stereo not drawn) [Compound 110]?
Answer: inhibition at 1 µM [1]: 83%; inhibition at 1 µM [2]: 92%; inhibition at 1 µM [3]: 62%; inhibition at 1 µM [4]: 48%

Question: With `CN1C2CCC1c1c(n(CC(=O)c3ccc(Cl)cc3)c3ccc(Cl)cc13)C2` (stereo not drawn) [Compound 111] as the compound, how does the inhibition at 1 µM [1] read?
Answer: 94%

Question: And the inhibition at 1 µM [2]?
Answer: 96%

Question: What about the inhibition at 1 µM [3] of the same compound?
Answer: 81%

Question: And the inhibition at 1 µM [4]?
Answer: 38%

Question: With `Cc1ccc2c(c1)c1c(n2CCc2nc(-c3ccccc3)cs2)CC2CCC1N2C` (stereo not drawn) [Compound 114] as the compound, how does the inhibition at 1 µM [1] read?
Answer: 88%

Question: And the inhibition at 1 µM [2]?
Answer: 107%

Question: What about the inhibition at 1 µM [3] of the same compound?
Answer: 59%

Question: What about the inhibition at 1 µM [4] of the same compound?
Answer: 29%

Question: Which results are given for `C/C(=C\n1c2c(c3cc(C)ccc31)C1CCC(C2)N1C)c1ccc(Cl)cc1` (stereo not drawn) [Compound 116]?
Answer: inhibition at 1 µM [1]: 90%; inhibition at 1 µM [2]: 95%; inhibition at 1 µM [3]: 97%; inhibition at 1 µM [4]: 10%

Question: How did the inhibition at 1 µM [1] turn out when `C/C(=C/n1c2c(c3ccccc31)[C@@H]1CC[C@H](C2)N1C)c1ccc(F)cc1` [Compound 121] was run?
Answer: 98%

Question: What about the inhibition at 1 µM [2] of the same compound?
Answer: 100%

Question: And the inhibition at 1 µM [3]?
Answer: 88%

Question: And the inhibition at 1 µM [4]?
Answer: 65%

Question: With `C/C(=C\n1c2c(c3cc(Cl)ccc31)C1CCC(C2)N1C)c1ccc(F)cc1` (stereo not drawn) [Compound 123] as the compound, how does the inhibition at 1 µM [1] read?
Answer: 97%

Question: And the inhibition at 1 µM [2]?
Answer: 103%

Question: And the inhibition at 1 µM [3]?
Answer: 95%

Question: And the inhibition at 1 µM [4]?
Answer: 98%

Question: Which inhibition at 1 µM [1] does the source give for `C/C(=C\n1c2c(c3cc(C)ccc31)C1CCC(C2)N1C)c1ccc(F)cc1` (stereo not drawn) [Compound 124] here?
Answer: 97%

Question: And the inhibition at 1 µM [2]?
Answer: 101%

Question: What about the inhibition at 1 µM [3] of the same compound?
Answer: 86%

Question: What about the inhibition at 1 µM [4] of the same compound?
Answer: 85%

Question: What does the source list for `C/C(=C\n1c2c(c3cc(Cl)ccc31)C1CCC(C2)N1C)c1ccc(Cl)cc1` (stereo not drawn) [Compound 125]?
Answer: inhibition at 1 µM [1]: 101%; inhibition at 1 µM [2]: 103%; inhibition at 1 µM [3]: 99%; inhibition at 1 µM [4]: 33%

Question: Which results are given for `COc1ccc(/C(C)=C/n2c3c(c4cc(Cl)ccc42)C2CCC(C3)N2C)cc1F` (stereo not drawn) [Compound 136]?
Answer: inhibition at 1 µM [1]: 99%; inhibition at 1 µM [2]: 87%; inhibition at 1 µM [3]: 100%; inhibition at 1 µM [4]: 31%

Question: With `CN1C2CCC1c1c(n(C#Cc3ccc(F)cc3)c3ccc(Cl)cc13)C2` (stereo not drawn) [Compound 138] as the compound, how does the inhibition at 1 µM [1] read?
Answer: 98%

Question: What about the inhibition at 1 µM [2] of the same compound?
Answer: 109%

Question: And the inhibition at 1 µM [3]?
Answer: 97%

Question: What about the inhibition at 1 µM [4] of the same compound?
Answer: 45%

Question: Which inhibition at 1 µM [1] does the source give for `Cc1ccc(C#Cn2c3c(c4cc(Cl)ccc42)C2CCC(C3)N2C)cn1` (stereo not drawn) [Compound 139] here?
Answer: 88%

Question: What about the inhibition at 1 µM [2] of the same compound?
Answer: 115%

Question: And the inhibition at 1 µM [3]?
Answer: 93%

Question: What about the inhibition at 1 µM [4] of the same compound?
Answer: 26%

Question: Which results are given for `Cc1ccc2c(c1)c1c(n2C#Cc2ccc(F)cc2)CC2CCC1N2C` (stereo not drawn) [Compound 141]?
Answer: inhibition at 1 µM [1]: 93%; inhibition at 1 µM [2]: 95%; inhibition at 1 µM [3]: 89%; inhibition at 1 µM [4]: 21%

Question: With `CN1C2CCC1c1c(n(C#Cc3ccc(Cl)cc3)c3ccc(Cl)cc13)C2` (stereo not drawn) [Compound 142] as the compound, how does the inhibition at 1 µM [1] read?
Answer: 98%

Question: And the inhibition at 1 µM [2]?
Answer: 95%

Question: And the inhibition at 1 µM [3]?
Answer: 100%

Question: What about the inhibition at 1 µM [4] of the same compound?
Answer: 36%

Question: `COc1ccc(C(C)(O)Cn2c3c(c4cc(Cl)ccc42)C2CCC(C3)N2C)cc1F` (stereo not drawn) [Compound 160] was tested. Which inhibition at 1 µM [1] did it give?
Answer: 95%

Question: And the inhibition at 1 µM [2]?
Answer: 80%

Question: And the inhibition at 1 µM [3]?
Answer: 93%

Question: And the inhibition at 1 µM [4]?
Answer: 29%

Question: For `COc1ccc(C(C)(O)Cn2c3c(c4cc(C)ccc42)C2CCC(C3)N2C)cc1F` (stereo not drawn) [Compound 161], which inhibition at 1 µM [1] is on record?
Answer: 96%

Question: What about the inhibition at 1 µM [2] of the same compound?
Answer: 95%

Question: And the inhibition at 1 µM [3]?
Answer: 92%

Question: And the inhibition at 1 µM [4]?
Answer: 25%

Question: Which inhibition at 1 µM [1] does the source give for `Cc1ccc2c(c1)c1c(n2C(=O)Cc2ccc(Cl)cc2)CC2CCC1N2C` (stereo not drawn) [Compound 162] here?
Answer: 92%

Question: And the inhibition at 1 µM [2]?
Answer: 83%

Question: And the inhibition at 1 µM [3]?
Answer: 93%

Question: What about the inhibition at 1 µM [4] of the same compound?
Answer: 23%

Question: What does the source list for `C/C(=C\n1c2c(c3cc(C)ccc31)C1CCC(C2)N1C)c1ccc(Cl)cc1Cl` (stereo not drawn) [Compound 163]?
Answer: inhibition at 1 µM [1]: 94%; inhibition at 1 µM [2]: 104%; inhibition at 1 µM [3]: 94%; inhibition at 1 µM [4]: 36%
